Results from US8609672B2, “Piperazinylpyrimidine analogues as protein kinase inhibitors” (University of the Pacific, priority 2010, dated 2013).

Experiments:
[1] = system: NCI-H322M; assay: NCI-60 SRB growth inhibition: NCI-H322M; format: cell-based, human; details: Non-small cell lung cancer, 48 hours treatment
[2] = system: RPMI-8226; assay: NCI-60 SRB growth inhibition: RPMI-8226; format: cell-based, human; details: RPMI-8226, Leukemia, 48 hours treatment
[3] = system: M14; assay: NCI-60 SRB growth inhibition: M14; format: cell-based, human; details: M14, Melanoma, 48 hours treatment
[4] = system: SK-MEL-5; assay: NCI-60 SRB growth inhibition: SK-MEL-5; format: cell-based, human; details: SK-MEL-5, Melanoma; 48 hours treatment
[5] = target: T1, ABL kinase (Homo sapiens, UniProt P00519); assay: Functional kinase inhibition assay: ABL; format: biochemical; details: 1 μM compound
T1 construct: purchased Millipore Corp. (Dundee, UK; assay service)
T1 sequence (P00519 whole entry): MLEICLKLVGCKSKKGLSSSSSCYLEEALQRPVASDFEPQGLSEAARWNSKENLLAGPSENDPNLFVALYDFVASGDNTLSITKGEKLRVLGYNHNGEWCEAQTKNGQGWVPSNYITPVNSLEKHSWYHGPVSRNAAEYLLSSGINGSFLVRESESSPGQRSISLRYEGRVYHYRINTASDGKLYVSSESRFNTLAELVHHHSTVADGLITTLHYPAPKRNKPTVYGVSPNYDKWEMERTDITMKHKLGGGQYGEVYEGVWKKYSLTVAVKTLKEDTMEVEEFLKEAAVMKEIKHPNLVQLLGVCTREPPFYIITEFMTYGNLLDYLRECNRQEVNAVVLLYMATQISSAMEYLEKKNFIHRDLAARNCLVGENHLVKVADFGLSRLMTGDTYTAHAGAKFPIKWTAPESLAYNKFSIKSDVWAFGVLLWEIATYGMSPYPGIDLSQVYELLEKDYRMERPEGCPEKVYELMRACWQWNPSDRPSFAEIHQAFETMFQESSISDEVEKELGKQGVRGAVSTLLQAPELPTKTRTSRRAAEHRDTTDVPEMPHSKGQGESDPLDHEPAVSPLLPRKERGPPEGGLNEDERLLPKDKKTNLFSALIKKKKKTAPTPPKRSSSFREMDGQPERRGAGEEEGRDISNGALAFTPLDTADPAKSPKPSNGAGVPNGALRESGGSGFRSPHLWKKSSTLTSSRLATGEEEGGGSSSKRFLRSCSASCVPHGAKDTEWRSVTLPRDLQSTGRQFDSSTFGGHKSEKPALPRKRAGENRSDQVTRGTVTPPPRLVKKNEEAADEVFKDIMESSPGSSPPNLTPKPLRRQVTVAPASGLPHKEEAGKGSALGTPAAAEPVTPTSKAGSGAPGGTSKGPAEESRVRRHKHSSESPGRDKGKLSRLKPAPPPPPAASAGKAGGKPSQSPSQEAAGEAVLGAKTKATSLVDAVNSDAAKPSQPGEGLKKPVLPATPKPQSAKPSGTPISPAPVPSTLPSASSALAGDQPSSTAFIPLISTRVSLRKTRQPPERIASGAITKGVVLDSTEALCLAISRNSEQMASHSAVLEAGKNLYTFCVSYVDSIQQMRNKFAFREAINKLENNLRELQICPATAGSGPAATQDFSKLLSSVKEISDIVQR
Procedure: [formula] The assay was performed in duplicates.
The results of kinase function inhibition assay are shown in Table 6, including the F-POC of 1 μM of compounds 4, 15, and 16 against the most sensitive kinases tested within this experiment. […] Kinases within the same subfamily are highlighted.

[6] = system: SNB-19; assay: NCI-60 SRB growth inhibition: SNB-19; format: cell-based, human; details: SNB-19, CNS cancer, 48 hours treatment
[7] = system: OVCAR-5; assay: NCI-60 SRB growth inhibition: OVCAR-5; format: cell-based, human; details: OVCAR-5, Ovarian cancer, 48 hours treatment
[8] = system: OVCAR-4; assay: NCI-60 SRB growth inhibition: OVCAR-4; format: cell-based, human; details: OVCAR-4, Ovarian cancer, 48 hours treatment
[9] = system: HS 578T; assay: NCI-60 SRB growth inhibition: HS 578T; format: cell-based, human; details: Breast cancer, 48 hours treatment
[10] = system: A498; assay: NCI-60 SRB growth inhibition: A498; format: cell-based, human; details: A498, Renal cancer, 48 hours treatment
[11] = system: NCI-60 cell line panel; assay: NCI-60 SRB growth inhibition: mean over the panel; format: cell-based, human; details: mean over NCI-60 cell lines, 48 hours treatment
[12] = system: HCT-15; assay: NCI-60 SRB growth inhibition: HCT-15; format: cell-based, human; details: HCT-15, Colon cancer; 48 hours treatment
[13] = system: OVCAR-3; assay: NCI-60 SRB growth inhibition: OVCAR-3; format: cell-based, human; details: OVCAR-3, Ovarian cancer; 48 hours treatment
[14] = system: TK-10; assay: NCI-60 SRB growth inhibition: TK-10; format: cell-based, human; details: TK-10, Renal cancer, 48 hours treatment
[15] = system: MCF7; assay: NCI-60 SRB growth inhibition: MCF7; format: cell-based, human; details: MCF7, Breast cancer; 48 hours treatment
[16] = system: SW-620; assay: NCI-60 SRB growth inhibition: SW-620; format: cell-based, human; details: SW-620, Colon cancer, 48 hours treatment
[17] = system: SF-295; assay: NCI-60 SRB growth inhibition: SF-295; format: cell-based, human
[18] = system: EKVX; assay: NCI-60 SRB growth inhibition: EKVX; format: cell-based, human; details: Non-small cell lung cancer, 48 hours treatment
[19] = system: NCI-H522; assay: NCI-60 SRB growth inhibition: NCI-H522; format: cell-based, human; details: NCI-H522, Non-small cell lung cancer; 48 hours treatment
[20] = system: K-562; assay: NCI-60 SRB growth inhibition: K-562; format: cell-based, human; details: K-562, Leukemia, 48 hours treatment
[21] = system: MDA-MB-435; assay: NCI-60 SRB growth inhibition: MDA-MB-435; format: cell-based, human; details: MDA-MB-435, Melanoma, 48 hours treatment
[22] = system: UACC-62; assay: NCI-60 SRB growth inhibition: UACC-62; format: cell-based, human; details: UACC-62, Melanoma; 48 hours treatment
[23] = system: MDA-MB-231/ATCC; assay: NCI-60 SRB growth inhibition: MDA-MB-231/ATCC; format: cell-based, human; details: Breast cancer, 48 hours treatment
[24] = system: HT29; assay: NCI-60 SRB growth inhibition: HT29; format: cell-based, human; details: HT29, Colon cancer, 48 hours treatment
[25] = system: HOP-62; assay: NCI-60 SRB growth inhibition: HOP-62; format: cell-based, human; details: HOP-62, Non-small cell lung cancer; 48 hours treatment
[26] = system: HL-6O(TB); assay: NCI-60 SRB growth inhibition: HL-6O(TB); format: cell-based, human; details: Leukemia, 48 hours treatment
[27] = system: HCC-2998; assay: NCI-60 SRB growth inhibition: HCC-2998; format: cell-based, human; details: HCC-2998, Colon cancer; 48 hours treatment
[28] = system: IGROVI; assay: NCI-60 SRB growth inhibition: IGROVI; format: cell-based, human; details: Ovarian cancer, 48 hours treatment
[29] = system: SF-268; assay: NCI-60 SRB growth inhibition: SF-268; format: cell-based, human; details: SF-268, CNS cancer; 48 hours treatment
[30] = system: SF-539; assay: NCI-60 SRB growth inhibition: SF-539; format: cell-based, human; details: SF-539, CNS cancer; 48 hours treatment
[31] = system: HCT-116; assay: NCI-60 SRB growth inhibition: HCT-116; format: cell-based; details: HCT-116, Colon cancer; 48 hours treatment
[32] = system: KM12; assay: NCI-60 SRB growth inhibition: KM12; format: cell-based, human; details: KM12, Colon cancer, 48 hours treatment
[33] = Homo sapiens, read-out: LC50 (the source's name)

## CCc1cnc(N2CCN(C(=O)c3ccc(CNc4ncnc5ccccc45)cc3)CC2)nc1 [Compound 15, (4-(5-ethylpyrimidin-2-yl)piperazin-1-yl)(4-((quinazolin-4-ylamino)methyl)phenyl)methanone]
[1]
  TGI: >100 µM
[2]; [33]
  CC50: > 100 µM
[2]
  TGI: 14.30 µM
[3]; [33]
  CC50: 93.7 µM
[3]
  TGI: 32.70 µM
[4]
  TGI: 2.90 µM
[5]
  inhibitory action over ABL kinase function: weak inhibitory action
[6]; [33]
  CC50: > 100 µM
[6]
  TGI: >100 µM
[7]; [33]
  CC50: > 100 µM
[7]
  TGI: >100 µM
[8]; [33]
  CC50: > 100 µM
[8]
  TGI: 58.80 µM
[9]
  TGI: >100 µM
[9]; [33]
  CC50: > 100 µM
[10]
  TGI: >100 µM
[10]; [33]
  CC50: > 100 µM
[11]; Homo sapiens
  GI50: 4.46 µM
[11]; Homo sapiens, read-out: Mean LC50
  CC50: > 100 µM
[11]
  Mean TGI: 51.28 µM
[12]
  TGI: >100 µM
[13]
  TGI: >100 µM
[14]; [33]
  CC50: > 100 µM
[14]
  TGI: >100 µM
[15]
  TGI: 72.80 µM
[16]; [33]
  CC50: > 100 µM
[16]
  TGI: 45.10 µM
[17]; Homo sapiens, SF-295, 48 h, read-out: LC50 (the source's name)
  CC50: > 100 µM
[17]; SF-295, CNS cancer, 48 hours treatment
  TGI: 23.10 µM
[18]; [33]
  CC50: > 100 µM
[18]
  TGI: 61.40 µM
[19]
  TGI: 55.40 µM
[20]; Homo sapiens, K562, read-out: LC50 (the source's name)
  CC50: > 100 µM
[20]
  TGI: >100 µM
[21]; [33]
  CC50: > 100 µM
[21]
  TGI: >100 µM
[22]
  TGI: 80.90 µM
[23]
  TGI: 84.90 µM
[24]
  TGI: 83.20 µM
[24]; Homo sapiens, HT-29, read-out: LC50 (the source's name)
  CC50: > 100 µM
[25]
  TGI: >100 µM
[26]
  TGI: 38.60 µM
[27]
  TGI: 48.90 µM
[28]; [33]
  CC50: > 100 µM
[28]
  TGI: 49.80 µM
[29]
  TGI: >100 µM
[30]
  TGI: >100 µM
[31]
  TGI: 25.00 µM
[32]; [33]
  CC50: 53.8 µM
[32]
  TGI: 24.30 µM
